According to ChEMBL document CHEMBL5512622, “Ecto-nucleotide pyrophosphatase/phosphodiesterase 1 inhibitors: Research progress and prospects” (Eur J Med Chem, 2024):
Blank lines part the entries; values can stand above or below the compound they belong to.

Assays:
[1] = molecular target: T1, Ectonucleotide pyrophosphatase/phosphodiesterase family member 1 (Homo sapiens, UniProt P22413); test: Inhibition of ENPP1 (unknown origin) using TMP-pNP as substrate preincubated for 10 mins followed by substrate addition and measured immediately under pH 8.8 by absorbance based multimode plate reader analysis
T1 sequence (P22413 whole entry): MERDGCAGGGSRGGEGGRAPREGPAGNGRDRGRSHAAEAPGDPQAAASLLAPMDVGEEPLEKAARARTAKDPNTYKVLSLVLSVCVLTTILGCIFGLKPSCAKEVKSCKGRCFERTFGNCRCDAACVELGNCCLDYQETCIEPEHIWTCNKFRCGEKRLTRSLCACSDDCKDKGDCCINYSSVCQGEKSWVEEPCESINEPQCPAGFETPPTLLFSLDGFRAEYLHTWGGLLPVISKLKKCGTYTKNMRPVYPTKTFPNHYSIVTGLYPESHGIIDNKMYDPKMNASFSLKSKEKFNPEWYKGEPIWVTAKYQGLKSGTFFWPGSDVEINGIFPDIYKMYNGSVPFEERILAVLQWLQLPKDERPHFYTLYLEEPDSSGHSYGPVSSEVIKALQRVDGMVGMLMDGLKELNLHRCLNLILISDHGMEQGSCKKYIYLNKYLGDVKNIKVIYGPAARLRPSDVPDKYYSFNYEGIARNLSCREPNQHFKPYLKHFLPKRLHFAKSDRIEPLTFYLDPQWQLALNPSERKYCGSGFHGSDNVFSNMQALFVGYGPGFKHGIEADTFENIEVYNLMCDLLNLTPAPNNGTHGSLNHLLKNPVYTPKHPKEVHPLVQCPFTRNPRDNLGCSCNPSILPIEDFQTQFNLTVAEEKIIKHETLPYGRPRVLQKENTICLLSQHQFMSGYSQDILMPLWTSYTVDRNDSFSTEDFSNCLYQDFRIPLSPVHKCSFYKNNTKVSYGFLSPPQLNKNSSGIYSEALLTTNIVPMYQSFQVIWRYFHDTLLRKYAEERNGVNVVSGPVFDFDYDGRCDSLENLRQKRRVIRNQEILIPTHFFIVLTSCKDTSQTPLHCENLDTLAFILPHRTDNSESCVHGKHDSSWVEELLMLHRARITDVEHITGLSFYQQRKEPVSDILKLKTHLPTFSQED

[2] = molecular target: T2, Ectonucleotide pyrophosphatase/phosphodiesterase family member 1 (Homo sapiens) (UniProt P22413); test: Binding affinity to recombinant human ENPP1 assessed as thermal stabilization by measuring change in melting temperature incubated for 5 mins by SYPRO orange dye based thermal shift assay
T2 sequence (whole entry): T1 sequence (P22413 whole entry)

[3] = molecular target: T1, Ectonucleotide pyrophosphatase/phosphodiesterase family member 1; test: Inhibition of recombinant human ENPP1 using p-NP-TMP as substrate incubated for 45 mins by absorbance based analysis
[4] = Cmax in CD-1 mouse at 50 mg/kg, po measured after 24 hrs by LC-MS/MS analysis; assay type: ADME, organism-based; details: in vivo
[5] = molecular target: T1, Ectonucleotide pyrophosphatase/phosphodiesterase family member 1; test: Inhibition of ENPP1 in HEK293 cells using 2',3'-cGAMP as substrate by AMP-Glo assay; assay type: cell-based
[6] = molecular target: T1, Ectonucleotide pyrophosphatase/phosphodiesterase family member 1; test: Inhibition of ENPP1 (unknown origin) using cGAMP as substrate assessed as inhibition constant at pH 7.4
[7] = AUClast in CD-1 mouse at 50 mg/kg, po measured after 24 hrs by LC-MS/MS analysis; assay type: ADME, organism-based; details: in vivo
[8] = molecular target: T1, Ectonucleotide pyrophosphatase/phosphodiesterase family member 1; test: Inhibition of human ENPP-1 using 2',3'-cGAMP as substrate preincubated for 15 mins followed by substrate addition and measured after 30 mins by AMP-Glo reagent based assay
[9] = molecular target: T1, Ectonucleotide pyrophosphatase/phosphodiesterase family member 1; test: Inhibition of recombinant human ENPP-1 using AMP-pNP as substrate incubated for 20 mins by absorbance based plate reader analysis
[10] = molecular target: T3, Ectonucleotide pyrophosphatase/phosphodiesterase family member 1 (Mus musculus, UniProt P06802); test: Inhibition of ENPP1 in mouse plasma using [32P]cGAMP as substrate; assay type: cell-free
T3 sequence (P06802 whole entry): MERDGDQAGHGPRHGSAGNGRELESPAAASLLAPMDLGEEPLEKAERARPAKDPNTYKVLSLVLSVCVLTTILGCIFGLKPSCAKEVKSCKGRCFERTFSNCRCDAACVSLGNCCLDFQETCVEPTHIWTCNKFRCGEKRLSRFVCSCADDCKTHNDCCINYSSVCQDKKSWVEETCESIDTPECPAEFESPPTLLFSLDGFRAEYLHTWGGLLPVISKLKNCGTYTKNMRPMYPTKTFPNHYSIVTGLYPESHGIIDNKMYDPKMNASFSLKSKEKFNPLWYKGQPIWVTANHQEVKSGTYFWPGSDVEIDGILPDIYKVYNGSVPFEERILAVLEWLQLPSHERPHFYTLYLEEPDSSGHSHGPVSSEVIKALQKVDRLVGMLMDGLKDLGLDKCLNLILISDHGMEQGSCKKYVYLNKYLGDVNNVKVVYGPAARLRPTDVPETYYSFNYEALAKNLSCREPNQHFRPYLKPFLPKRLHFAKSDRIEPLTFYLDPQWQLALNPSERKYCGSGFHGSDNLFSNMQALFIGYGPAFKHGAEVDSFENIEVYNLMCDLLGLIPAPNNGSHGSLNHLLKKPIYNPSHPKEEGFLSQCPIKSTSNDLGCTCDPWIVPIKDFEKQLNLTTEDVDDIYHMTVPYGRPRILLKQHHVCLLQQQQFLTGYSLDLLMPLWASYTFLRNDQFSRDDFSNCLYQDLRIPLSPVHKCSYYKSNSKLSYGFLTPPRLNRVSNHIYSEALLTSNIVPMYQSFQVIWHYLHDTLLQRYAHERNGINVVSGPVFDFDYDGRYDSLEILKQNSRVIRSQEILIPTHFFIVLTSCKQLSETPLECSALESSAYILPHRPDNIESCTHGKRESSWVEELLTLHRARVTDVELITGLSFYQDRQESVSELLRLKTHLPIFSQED

MDA-MB-231 = test: Antiproliferative activity against human MDA-MB-231 cells incubated for 48 hrs by CCK8 assay; details: MDA-MB-231, 48 h
[11] = molecular target: T1, Ectonucleotide pyrophosphatase/phosphodiesterase family member 1; test: Inhibition of recombinant human ENPP1 using 2',3'-cGAMP as substrate preincubated for 5 to 10 mins followed by substrate addition and measured after 90 mins by […] assay
[12] = molecular target: T1, Ectonucleotide pyrophosphatase/phosphodiesterase family member 1; test: Inhibition of ENNP1 (unknown origin) using 2',3'-cGAMP as substrate preincubated with compound followed by substrate addition and measured after 60 mins by AMP-Glo reagent based assay
[13] = molecular target: T1, Ectonucleotide pyrophosphatase/phosphodiesterase family member 1; test: Inhibition of recombinant human ENPP1 using ATP as substrate assessed as inhibition constant incubated for 30 mins by Lineweaver-Burk plot analysis
[14] = Half-life in ICR mouse at 5 mg/kg, po measured after 24 hrs by LC/MS/MS analysis; assay type: ADME, organism-based; details: in vivo
[15] = Cmax in ICR mouse at 5 mg/kg, po measured after 24 hrs by LC/MS/MS analysis; assay type: ADME, organism-based; details: in vivo
[16] = AUC in ICR mouse at 5 mg/kg, po measured after 24 hrs by LC/MS/MS analysis; assay type: ADME, organism-based; details: in vivo

Ki [1]: < 100 nM
SMILES: NC(=O)c1c[nH]c2c(NCc3ccc(P(=O)(O)O)cc3)ncnc12

ΔTm [2]: 1.11 °C
SMILES: COc1ccc(NC(=O)CSc2nc3c(C)c(C#N)ncc3[nH]2)cc1O

IC50 [3]: < 200 nM
SMILES: COc1ccc(NC(=O)CSc2nc(C(N)=O)c[nH]2)cc1OC

Cmax [4]: 1680 ng/mL | IC50 [5]: < 10 nM | Ki [6]: < 10 nM | AUC(0-t) at 24 h [7]: 4130 ng·h/mL
SMILES: COc1cccc2c(N3CCC(CC(CNC(=O)[C@@H](N)C(C)(C)C)P(=O)(O)O)CC3)ncnc12 (stereo partly specified)

IC50 [8]: < 100 nM | IC50 [9]: < 100 nM
SMILES: COc1cc2ncc3ncn(Cc4ccc(CS(N)(=O)=O)cn4)c3c2cc1OC

Cmax [4]: 67.2 ng/mL | Ki [10]: 4 nM | Ki [6]: < 2 nM | AUC(0-t) at 24 h [7]: 344 ng·h/mL
SMILES: COc1cccc2c(N3CCC(CCP(=O)(O)O)CC3)ncnc12

IC50 (MDA-MB-231): < 1000 nM
SMILES: COc1ccc2[nH]c(SCc3nc4cc(F)ccc4c(=O)[nH]3)nc2c1

Ki [6]: < 2 nM
SMILES: COc1cccc2c(N3CCC(CCP(=O)(O)O)CC3)c(C#N)cnc12

SMILES: COc1cc2c(-c3ccc(CNS(N)(=O)=O)c(F)c3)n[nH]c(=O)c2cc1OC
IC50 [11]: < 1000 nM

IC50 [3]: < 200 nM
SMILES: COc1ccc(NC(=O)CSc2nc(C(=O)O)c[nH]2)cc1Cl

Ki [1]: < 100 nM
SMILES: NC(=O)c1c[nH]c2c(NCc3ccc(B(O)O)cc3)ncnc12

IC50 [12]: < 1 nM
SMILES: COc1ncc2nc(C(F)(F)F)n(Cc3ncc(S(N)(=O)=O)cc3F)c2c1-c1ccccc1

IC50 [3]: < 200 nM
SMILES: COc1ccc(NC(=O)CSc2nc(C(=O)OCC(O)CO)c[nH]2)cc1OC (stereo unspecified)

IC50 [11]: < 1000 nM
SMILES: COc1ccc2c(c1)nnn2-c1ccc(CNS(N)(=O)=O)c(F)c1

IC50 [1]: < 10 nM
SMILES: NC(=O)c1ccc2c(ncn2Cc2ccc(B(O)O)cc2)n1

IC50 [11]: < 1000 nM
SMILES: Nc1ccc(F)c(-c2ccnc3c2CCC(=O)N3)c1

Ki [13]: 5 µM
SMILES: Nc1ncnc2c1ncn2[C@@H]1O[C@H](COP(=O)(O)OP(=O)(O)OP(=O)(O)O)[C@@H](OC(=O)c2ccc(C(=O)c3ccccc3)cc2)[C@H]1O

Ki [13]: 5 µM
SMILES: CSc1nc(N)c2ncn([C@@H]3O[C@H](COP(=O)(O)OP(=O)(O)O)[C@@H](O)[C@H]3O)c2n1

SMILES: Nc1ncnc2c1ncn2[C@@H]1O[C@H](COP(=O)(O)CP(=O)(O)O)[C@@H](O)[C@H]1O [PHOSPHOMETHYLPHOSPHONIC ACID ADENOSYL ESTER]
Ki [13]: 5 µM

Ki [13]: 5 µM
SMILES: CSc1nc(N)c2ncn([C@@H]3O[C@H](COP(=O)(O)OP(=O)(O)OP(=O)(O)O)[C@@H](O)[C@H]3O)c2n1

half-life [14]: 196 min | Cmax [15]: 736 ng/mL | AUC at 24 h [16]: 619 ng·h/mL
SMILES: COc1ccc2c(Oc3ccc(CC(=O)NO)cc3)ccnc2n1

Ki [13]: 5 µM
SMILES: Nc1ncnc2c1ncn2[C@@H](C=O)O[C@@H](C=O)COP(=O)(O)OP(=O)(O)OP(=O)(O)O
